Assay results: US12673945B2, “3-((8-((1H-pyrazol-4-yl)amino)imidazo[1,2-a]pyridin-3-yl)ethinyl)-n-phenylbenzamide derivative, method for preparing same, and pharmaceutical composition containing same as active ingredient for prevention or treatment of cancer” (DAEGU-GYEONGBUK MEDICAL INNOVATION FOUNDATION, priority 2020, dated 2026)

Columns and labels:
Assay type in all cases: cell-based
T315I-TCCS cells = test: human CML cell proliferation inhibition; conditions: 72 hours, Cell Counting Kit-8
In short: (§1)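 Here GI50 reflects CCK-8 absorbance (450 nm) after a 72 h compound exposure, calculated relative to vehicle wells. Compound was tested up to a final 10 μM. The parental lines carry Bcr-Abl, the T315I lines carry the T315I gatekeeper mutant.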

T315I-KOPM28 cells = test: human CML cell proliferation inhibition; conditions: 72 hours, Cell Counting Kit-8
In short: as §1

TCCS cells = test: human CML cell proliferation inhibition; conditions: 72 hours, Cell Counting Kit-8
In short: as §1

KOPM28 cells = test: human CML cell proliferation inhibition; conditions: 72 hours, Cell Counting Kit-8
In short: as §1

T315I-Bcr-Abl (Ba/F3) = test: Ba/F3 cell proliferation inhibition; conditions: BaF3; 72 hours, Cell Counting Kit-8
In short: (§2)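 GI50 derived from CCK-8 absorbance at 450 nm (2 h development), expressed relative to DMSO vehicle. Cells (parental or T315I-Bcr-Abl Ba/F3, 1×10^4/well) received nine threefold-diluted concentrations, final 0 to 10 μM, for 72 h at 37 °C.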

Parental (Ba/F3) = test: Ba/F3 cell proliferation inhibition; conditions: BaF3; 72 hours, Cell Counting Kit-8
In short: as §2

SMILES | GI50 (T315I-Bcr-Abl (Ba/F3)) | GI50 (T315I-TCCS cells) | GI50 (T315I-KOPM28 cells) | GI50 (TCCS cells) | GI50 (KOPM28 cells) | GI50 (Parental (Ba/F3))
Cc1cc(F)c(C(=O)Nc2cc(N3CCN(C)CC3)cc(C(C)(C)C#N)c2)cc1C#Cc1cnc2c(Nc3cnn(C)c3)cccn12 [Example 20, N-(3-(2-cyanopropan-2-yl)-5-(4-methylpiperazin-1-yl)phenyl)-2-fluoro-4-methyl-5-((8-((1-methyl-1H-pyrazol-4-yl)amino)imidazo[1,2-a]pyridin-3-yl)ethynyl)benzamide] | 50 to 500 nM | 100 nM | > 100 nM | < 10 nM | < 10 nM | 500 to 5000 nM
Cc1cc(F)c(C(=O)Nc2ccc(CN3CCN(C)C(=O)C3)c(C(C)(C)C#N)c2)cc1C#Cc1cnc2c(Nc3cn[nH]c3)cccn12 [Example 93, 5-((8-((1H-pyrazol-4-yl)amino)imidazo[1,2-a]pyridin-3-yl)ethynyl)-N-(3-(2-cyanopropan-2-yl)-4-((4-methyl-3-oxopiperazin-1-yl)methyl)phenyl)-2-fluoro-4-methylbenzamide] | 50 to 500 nM | > 100 nM | > 100 nM | < 10 nM | < 10 nM | 500 to 5000 nM
Cc1cc(F)c(C(=O)Nc2cc(CN3CCN(S(C)(=O)=O)CC3)cc(C(C)(C)C#N)c2)cc1C#Cc1cnc2c(Nc3cn[nH]c3)cccn12 [Example 87, 5-((8-((1H-pyrazol-4-yl)amino)imidazo[1,2-a]pyridin-3-yl)ethynyl)-N-(3-(2-cyanopropan-2-yl)-5-((4-(methylsulfonyl)piperazin-1-yl)methyl)phenyl)-2-fluoro-4-methylbenzamide] | 50 to 500 nM | 100 nM | > 100 nM | < 10 nM | < 10 nM | > 5000 nM
Cc1cc(F)c(C(=O)Nc2cc(CN3CCC(C(F)(F)F)CC3)cc(C(C)(C)C#N)c2)cc1C#Cc1cnc2c(Nc3cnn(C)c3)cccn12 [Example 31, N-(3-(2-cyanopropan-2-yl)-5-((4-(trifluoromethyl)piperidin-1-yl)methyl)phenyl)-2-fluoro-4-methyl-5-((8-((1-methyl-1H-pyrazol-4-yl)amino)imidazo[1,2-a]pyridin-3-yl)ethynyl)benzamide] | 50 to 500 nM | > 100 nM | > 100 nM | < 10 nM | < 10 nM | > 5000 nM
Cc1cc(F)c(C(=O)Nc2cc(OCCCN(C)C)cc(C(F)(F)F)c2)cc1C#Cc1cnc2c(Nc3cn[nH]c3)cccn12 [Example 103, 5-((8-((1H-pyrazol-4-yl)amino)imidazo[1,2-a]pyridin-3-yl)ethynyl)-N-(3-(3-(dimethylamino)propoxy)-5-(trifluoromethyl)phenyl)-2-fluoro-4-methylbenzamide] | 50 to 500 nM | 100 nM | > 100 nM | < 10 nM | < 10 nM | > 5000 nM
Cc1cc(F)c(C(=O)Nc2cc(CN3CCN(S(C)(=O)=O)CC3)cc(C(C)(C)C#N)c2)cc1C#Cc1cnc2c(Nc3cnn(C)c3)cccn12 [Example 34, N-(3-(2-cyanopropan-2-yl)-5-((4-(methylsulfonyl)piperazin-1-yl)methyl)phenyl)-2-fluoro-4-methyl-5-((8-((1-methyl-1H-pyrazol-4-yl)amino)imidazo[1,2-a]pyridin-3-yl)ethynyl)benzamide] | 50 to 500 nM | 100 nM | > 100 nM | < 10 nM | < 10 nM | > 5000 nM
Cc1cc(F)c(C(=O)Nc2cc(CN3CCN(C)CC3)cc(C(C)(C)C#N)c2)cc1C#Cc1cnc2c(Nc3cn[nH]c3)cccn12 [Example 84, 5-((8-((1H-pyrazol-4-yl)amino)imidazo[1,2-a]pyridin-3-yl)ethynyl)-N-(3-(2-cyanopropan-2-yl)-5-((4-methylpiperazin-1-yl)methyl)phenyl)-2-fluoro-4-methylbenzamide] | 50 to 500 nM | 100 nM | > 100 nM | < 10 nM | < 10 nM | 500 to 5000 nM
Cc1cc(F)c(C(=O)Nc2cc(CN3CCOCC3)cc(C(F)(F)F)c2)cc1C#Cc1cnc2c(Nc3cnn(C)c3)cccn12 [Example 66, 2-fluoro-4-methyl-5-((8-((1-methyl-1H-pyrazol-4-yl)amino)imidazo[1,2-a]pyridin-3-yl)ethynyl)-N-(3-(morpholinomethyl)-5-(trifluoromethyl)phenyl)benzamide] | 50 to 500 nM | > 100 nM | > 100 nM | < 10 nM | < 10 nM | > 5000 nM
Cc1cc(F)c(C(=O)Nc2cc(CN3CC(OC(C)C)C3)cc(C(F)(F)F)c2)cc1C#Cc1cnc2c(Nc3cnn(C)c3)cccn12 [Example 72, 2-fluoro-N-(3-((3-isopropoxyazetidin-1-yl)methyl)-5-(trifluoromethyl)phenyl)-4-methyl-5-((8-((1-methyl-1H-pyrazol-4-yl)amino)imidazo[1,2-a]pyridin-3-yl)ethynyl)benzamide] | 50 to 500 nM | > 100 nM | > 100 nM | < 10 nM | < 10 nM | > 5000 nM
Cc1cc(F)c(C(=O)Nc2cc(-c3cccnc3)cc(C(C)(C)C#N)c2)cc1C#Cc1cnc2c(Nc3cn[nH]c3)cccn12 [Example 79, 5-((8-((1H-pyrazol-4-yl)amino)imidazo[1,2-a]pyridin-3-yl)ethynyl)-N-(3-(2-cyanopropan-2-yl)-5-(pyridin-3-yl)phenyl)-2-fluoro-4-methylbenzamide] | 50 to 500 nM | 100 nM | > 100 nM | < 10 nM | < 10 nM | > 5000 nM

Now from value to molecule, other results behind:

GI50 (T315I-Bcr-Abl (Ba/F3)) | SMILES | GI50 (T315I-TCCS cells) | GI50 (T315I-KOPM28 cells) | GI50 (TCCS cells) | GI50 (KOPM28 cells) | GI50 (Parental (Ba/F3))
50 to 500 nM | Cc1cc(F)c(C(=O)Nc2cc(OCCN(C)C)cc(C(F)(F)F)c2)cc1C#Cc1cnc2c(Nc3cn[nH]c3)cccn12 [Example 102, 5-((8-((1H-pyrazol-4-yl)amino)imidazo[1,2-a]pyridin-3-yl)ethynyl)-N-(3-(2-(dimethylamino)ethoxy)-5-(trifluoromethyl)phenyl)-2-fluoro-4-methylbenzamide] | 100 nM | > 100 nM | < 10 nM | < 10 nM | 500 to 5000 nM
50 to 500 nM | Cc1cc(F)c(C(=O)Nc2ccc(Cn3cncn3)c(C(F)(F)F)c2)cc1C#Cc1cnc2c(Nc3cnn(C)c3)cccn12 [Example 64, N-(4-((1H-1,2,4-triazol-1-yl)methyl)-3-(trifluoromethyl)phenyl)-2-fluoro-4-methyl-5-((8-((1-methyl-1H-pyrazol-4-yl)amino)imidazo[1,2-a]pyridin-3-yl)ethynyl)benzamide] | 100 nM | > 100 nM | < 10 nM | < 10 nM | > 5000 nM
50 to 500 nM | Cc1cc(F)c(C(=O)Nc2cc(CN3CCCN(C)CC3)cc(C(F)(F)F)c2)cc1C#Cc1cnc2c(Nc3cnn(C)c3)cccn12 [Example 67, 2-fluoro-4-methyl-N-(3-((4-methyl-1,4-diazepan-1-yl)methyl)-5-(trifluoromethyl)phenyl)-5-((8-((1-methyl-1H-pyrazol-4-yl)amino)imidazo[1,2-a]pyridin-3-yl)ethynyl)benzamide] | 100 nM | 100 nM | < 10 nM | < 10 nM | 500 to 5000 nM
50 to 500 nM | Cc1cc(F)c(C(=O)Nc2ccc(CN3CCN(CCO)CC3)c(C(C)(C)C#N)c2)cc1C#Cc1cnc2c(Nc3cnn(C)c3)cccn12 [Example 43, N-(3-(2-cyanopropan-2-yl)-4-((4-(2-hydroxyethyl)piperazin-1-yl)methyl)phenyl)-2-fluoro-4-methyl-5-((8-((1-methyl-1H-pyrazol-4-yl)amino)imidazo[1,2-a]pyridin-3-yl)ethynyl)benzamide] | 100 nM | > 100 nM | < 10 nM | < 10 nM | 500 to 5000 nM
50 to 500 nM | Cc1cc(F)c(C(=O)Nc2ccc(CN3CCN(C)C(=O)C3)c(C(F)(F)F)c2)cc1C#Cc1cnc2c(Nc3cn[nH]c3)cccn12 [Example 112, 5-((8-((1H-pyrazol-4-yl)amino)imidazo[1,2-a]pyridin-3-yl)ethynyl)-2-fluoro-4-methyl-N-(4-((4-methyl-3-oxopiperazin-1-yl)methyl)-3-(trifluoromethyl)phenyl)benzamide] | 100 nM | 100 nM | < 10 nM | < 10 nM | 500 to 5000 nM
50 to 500 nM | Cc1cc(F)c(C(=O)Nc2cc(CN3CCN(C)C(=O)C3)cc(C(C)(C)C#N)c2)cc1C#Cc1cnc2c(Nc3cnn(C)c3)cccn12 [Example 35, N-(3-(2-cyanopropan-2-yl)-5-((4-methyl-3-oxopiperazin-1-yl)methyl)phenyl)-2-fluoro-4-methyl-5-((8-((1-methyl-1H-pyrazol-4-yl)amino)imidazo[1,2-a]pyridin-3-yl)ethynyl)benzamide] | > 100 nM | > 100 nM | < 10 nM | < 10 nM | 500 to 5000 nM
50 to 500 nM | Cc1cc(F)c(C(=O)Nc2cc(CN3CCN(C)C(=O)C3)cc(C(C)(C)C#N)c2)cc1C#Cc1cnc2c(Nc3cn[nH]c3)cccn12 [Example 88, 5-((8-((1H-pyrazol-4-yl)amino)imidazo[1,2-a]pyridin-3-yl)ethynyl)-N-(3-(2-cyanopropan-2-yl)-5-((4-methyl-3-oxopiperazin-1-yl)methyl)phenyl)-2-fluoro-4-methylbenzamide] | > 100 nM | > 100 nM | < 10 nM | < 10 nM | 500 to 5000 nM
